Earlier results as cited in patent EP4659595A1, “NICOTINE-POLYMER COMPLEX COMPRISING MULTIPLE NICOTINE FORMS” (Nicoventures Trading Limited, priority 2024, dated 2025).

Experiments:
[1] = when isolated; converts via isomerization into trans-bixin (β-bixin)
[2] = fats, alcohols, water
[3] = partition coefficient between octanol and water; source of values not stated

| Molecule | chemical stability [1] | solubility [2] | logP [3] |
| --- | --- | --- | --- |
| COC(=O)/C=C/C(C)=C\C=C\C(C)=C\C=C\C=C(C)\C=C\C=C(C)\C=C\C(=O)O [bixin, (2E,4E,6E,8E,10E,12E,14E,16Z,18E)-20-methoxy-4,8,13,17-tetramethyl-20-oxoicosa-2,4,6,8,10,12,14,16,18-nonaenoic acid] | chemically unstable when isolated | soluble in fats and alcohols but insoluble in water | – |
| ethyl benzoic acid | – | – | 2.9 |
| CC(C)[C@@H]1CC[C@@H](C)C[C@H]1OC(=O)CCC(=O)O [monomenthyl succinate] | – | – | 3 |
| isopropyl benzoic acid | – | – | 3.5 |
| tocopherol succinate | – | – | 10.2 |
| CC(/C=C/C=C(C)/C=C/C(=O)O)=C\C=C\C=C(C)\C=C\C=C(C)\C=C\C(=O)O (stereo in doubt) [norbixin, (2E,4E,6E,8E,10E,12E,14E,16E,18E)-4,8,13,17-tetramethylicosa-2,4,6,8,10,12,14,16,18-nonaenedioic acid] | – | water soluble | – |
